The nature of data set [1]: Thioflavin T fluorescence assay. The format is physicochemical. The following applies: 1.0 mg/mL in PBS pH 7.4, 37 °C, orbital shaking; ThT excitation 420 nm, emission 482 nm. How it is done: All peptides were dissolved in Eppendorf Low Retention Tubes in 1.0 mL of PBS pH 7.4. The concentration of the solutions of peptides was 1.0 mg/mL. The peptides were incubated at 37 °C with constant orbital shaking. Aliquots for the evaluation of the fibrillization process were taken before incubation and after 1, 2, 3, 6, 14, and 21 days or only after 7 days, depending on the experiments.
Ten microliters of peptide solution incubated under fibrillization conditions (see Fibril preparation) were mixed with 10 µL of 1.5 mM ThT in water and 90 µL of PBS pH 7.4. The fluorescence was measured on a Tecan Infinite 200Pro (Tecan Group Ltd., Männedorf, Switzerland) spectrofluorometer in 96-well plates (Costar Black®), with excitation wavelength set at 420 nm and emission in the range of 455 to 600 nm.

Data set [2] deals with T1, human neutrophil elastase (Homo sapiens, UniProt P08246).
T1 construct: purchased Sigma Aldrich
T1 sequence (P08246 30-267): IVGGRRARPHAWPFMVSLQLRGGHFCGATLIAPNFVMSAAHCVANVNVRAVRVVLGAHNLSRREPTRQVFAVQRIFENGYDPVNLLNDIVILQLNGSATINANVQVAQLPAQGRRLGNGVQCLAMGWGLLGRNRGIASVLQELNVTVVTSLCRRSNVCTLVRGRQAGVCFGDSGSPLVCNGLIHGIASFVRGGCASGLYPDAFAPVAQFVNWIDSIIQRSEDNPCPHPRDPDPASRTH
Put plainly: Incubation with neutrophil elastase (release of active sequence). The format is in vitro ADME. The following applies: non-fibrillated peptide 1.0 mM, 0.1 M Tris HCl, 500 mM NaCl, 0.05% Triton X-100, 20 mM CaCl2, pH 7.5; enzyme 150 nM; 30 min, 37 °C; RP-UHPLC (PDA) and LC-MS. On the procedure: An enzymatic stability study was performed using the human neutrophil elastase enzyme (Sigma Aldrich, St. Louis, MO, USA). The peptides were dissolved in a buffer (with composition: 0.1 M Tris HCl, 500 mM NaCl, 0.05% Triton X-100, 20 mM CaCl2, pH 7.5), to a final concentration 1.0 mM. The fibrils formed in the aggregation process were dissolved in PBS at pH 7.4 to a concentration of 1 mg/mL. The enzyme was added to the peptide/fibril solution to a concentration of 150 nM and incubated for 30 min (peptides) or 60 min (fibrils), at 37 °C, with agitation. A 10% aqueous TFA solution was added to the reaction mixture to stop the digestion. The progress of the reaction was monitored by RP-UHPLC with a PDA (Photo Diode Array) detector on a Kinetex C8 column (2.6 μm, 100 Å 2.6 × 100 mm, Phenomenex, Torrance, CA, USA), at a gradient of 0–50% B for 15 min, and by LC-MS.

A further data set deals with HaCaT keratinocytes. Put plainly: XTT proliferation assay, keratinocytes. The format is cell-based, human. As to conditions: for increase in proliferation by fibrils compared to control (XTT): fibrillated form, 10 µL of fibrils (50 µg/mL), 48 h, not statistically significant; for stimulation of proliferation (XTT), in words / inhibition of proliferation (XTT), in words: non-fibrillated peptide, 48 and 72 h; for inhibition of proliferation (XTT), in words: up to 25 µg/mL. How it is done: Immortalized human HaCaT [69, 70] keratinocytes (DKFZ, Heidelberg, Germany) and the human dermal fibroblast cell line 46BR.1N (ECACC, Sigma Aldrich, St. Louis, MO, USA) were used in the study. Cells were routinely grown in culture flasks (growth surface area 25 cm^2) in Dulbecco’s modified Eagle medium (DMEM, Sigma Aldrich, St. Louis, MO, USA), with 4500 mg/L of glucose, 584 mg/L of L-glutamine, sodium pyruvate, and sodium bicarbonate, supplemented with 10% FBS and 100 units/mL of penicillin and 100 μg/mL of streptomycin (Sigma Aldrich, St. Louis, MO, USA), under a humidified atmosphere with 5% CO2 at 37 °C. Medium was changed every 2–3 days.
Lactate dehydrogenase (LDH) activity in cell culture supernatants (Takara, Japan, cat. No. MK401) was measured to determine the cytotoxicity of the tested compounds, and the XTT assay was used to evaluate their effect on cell proliferation. Both tests were performed as previously described according to manufacturers’ instructions. Briefly, cells were seeded into 96-well plates, at a density of 5000 cells per well, in DMEM supplemented with 10% FBS. After 24 h the medium was exchanged for serum-free DMEM containing appropriate concentrations of the tested compounds. Supernatants for LDH analysis were collected after 48 h of incubation. The XTT assay was performed after 48 and 72 h of incubation.
For the analysis of the effect of the peptide fibrils on skin cells, the experiment was performed as described, but the cells were stimulated with 10 µL of the fibrils (50 µg/mL) and incubated for 48 h, when the LDH and XTT assay were then performed.

The subject of a further data set is 46BR.1N fibroblasts. Kind of data set: Collagen synthesis analysis (Direct red 80). The format is cell-based, human. As to conditions: 25.0 µg/mL; 6 days; Direct red 80, 550 nm, percentage of control. How it is done: 46BR.1N fibroblasts were seeded into 96-well plates, at a density of 3000 cells per well, in DMEM medium supplemented with 10% FBS. After 24 h, when the cells had attached to the plate, the medium was exchanged for a fresh one, and the cells were stimulated with appropriate concentrations of the tested peptides. Half of the medium was exchanged every two days, with additional stimulation during every medium exchange, and the cells were cultured in the presence of the peptides for six days. The medium was then removed and the cells were washed with PBS, fixed for 1 h in Bouin’s fluid (15 mL of saturated picric acid, 5 mL of 37% formaldehyde and 1 mL of acetic acid), washed in running tap water for 15 min and air dried. The cells were stained for 1 h with Direct red 80 (Sigma Aldrich, St. Louis, MO, USA) dissolved in saturated aqueous picric acid solution at a concentration of 1 mg/mL, while gently shaking the plate on a microplate shaker. The dye was removed and the cells were washed with a 0.01 M hydrochloric acid solution to remove unbound dye. The cells were photographed with a light microscope. The dye was then dissolved in 0.1 M sodium hydroxide for 30 min by shaking the plate on a microplate shaker at room temperature. The solution was transferred to a new plate and a spectrophotometric analysis was performed at 550 nm, using 0.1 N sodium hydroxide as a blank. […]

Where a SMILES comes first, the peptide text is derived from it.

The text below walks through data of article PMC8067766 (International Journal of Molecular Sciences, 2021).

Consider `CC[C@H](C)[C@H](NC(=O)CNC(=O)[C@H](C)NC(=O)[C@H](CCC(N)=O)NC(=O)CNC(=O)CNC(=O)CNC(=O)[C@@H](NC(=O)[C@@H]1CCCN1C(=O)[C@H](C)NC(=O)[C@H](C)NC(=O)CNC(=O)CNC(=O)CNC(=O)[C@H](CCCCN)NC(=O)[C@H](Cc1c[nH]cn1)NC(=O)CNC(C)=O)C(C)C)C(=O)N[C@H](C(=O)N[C@H](C(N)=O)C(C)C)C(C)C` [FC-GHK] (Ac-GHKGGGAAPVGGGQAGIVV-NH2), for which the “time course of ThT fluorescence increase (fibrillization)” value in data set [1] is “effective sample fibrilization during the first two days of incubation”. In addition, the “Degradation Yes/No by human neutrophil elastase” value in data set [2] is given as “Yes”. In addition, in the data set on HaCaT keratinocytes, the “increase in proliferation by fibrils compared to control (XTT)” value was “about 10%”; the “stimulation of proliferation (XTT), in words” value is “stimulated proliferation of both tested cell lines at concentrations of 0.01–10 µg/L”; the “inhibition of proliferation (XTT), in words” value is listed as “slight inhibition of the proliferation of skin cells after 72 h stimulation”. Further, the “increase in collagen synthesis” value with 46BR.1N fibroblasts is given as 30%.
Regarding `CC[C@H](C)[C@H](NC(=O)CNC(=O)[C@H](C)NC(=O)[C@H](CCC(N)=O)NC(=O)CNC(=O)CNC(=O)CNC(=O)[C@@H](NC(=O)[C@@H]1CCCN1C(=O)[C@H](C)NC(=O)[C@H](C)NC(=O)CNC(=O)CNC(=O)CNC(=O)[C@H](CCCCN)NC(=O)[C@H](Cc1c[nH]cn1)NC(=O)CNC(=O)[C@H](CCCCN)NC(C)=O)C(C)C)C(=O)N[C@H](C(=O)N[C@H](C(N)=O)C(C)C)C(C)C` [FC-KGHK] (Ac-KGHKGGGAAPVGGGQAGIVV-NH2), in data set [1], the “time course of ThT fluorescence increase (fibrillization)” value is recorded as “required at least three days of incubation”. Moreover, the “Degradation Yes/No by human neutrophil elastase” value in data set [2] is on record as “Yes”. In the data set on HaCaT keratinocytes, the “increase in proliferation by fibrils compared to control (XTT)” value is “about 10%”; the “stimulation of proliferation (XTT), in words” value is “most potent stimulation was observed at concentrations of 1.0 µg/mL after 48 h and 0.1 µg/mL after 72 h incubation”; the “inhibition of proliferation (XTT), in words” value is “did not inhibit the proliferation of skin cells”. In the data set with 46BR.1N fibroblasts, the “increase in collagen synthesis” value is reported as 40%.
